Assay [1] has as its target T1, Aldo-keto reductase family 1 member C3 (Homo sapiens, UniProt P42330).
T1 sequence (P42330 whole entry): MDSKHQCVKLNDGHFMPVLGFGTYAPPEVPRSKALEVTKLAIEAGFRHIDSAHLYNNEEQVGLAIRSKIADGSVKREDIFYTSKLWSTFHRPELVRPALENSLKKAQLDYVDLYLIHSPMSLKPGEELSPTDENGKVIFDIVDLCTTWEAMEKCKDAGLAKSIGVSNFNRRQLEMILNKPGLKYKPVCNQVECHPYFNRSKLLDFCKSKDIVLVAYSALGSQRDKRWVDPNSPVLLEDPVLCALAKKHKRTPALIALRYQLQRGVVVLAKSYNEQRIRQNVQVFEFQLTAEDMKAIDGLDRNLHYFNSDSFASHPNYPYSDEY
Nature of the assay: Inhibition of His-tagged human AKR1C3 expressed in Escherichia coli BL21 (DE3) assessed as inhibition of reduction of non-fluorescent ketone probe to fluorescent alcohol after 1 hr by competitive fluorescence assay.

Assay [2] addresses T2, Aldo-keto reductase family 1 member C1 (Homo sapiens, UniProt Q04828).
T2 sequence (Q04828 whole entry): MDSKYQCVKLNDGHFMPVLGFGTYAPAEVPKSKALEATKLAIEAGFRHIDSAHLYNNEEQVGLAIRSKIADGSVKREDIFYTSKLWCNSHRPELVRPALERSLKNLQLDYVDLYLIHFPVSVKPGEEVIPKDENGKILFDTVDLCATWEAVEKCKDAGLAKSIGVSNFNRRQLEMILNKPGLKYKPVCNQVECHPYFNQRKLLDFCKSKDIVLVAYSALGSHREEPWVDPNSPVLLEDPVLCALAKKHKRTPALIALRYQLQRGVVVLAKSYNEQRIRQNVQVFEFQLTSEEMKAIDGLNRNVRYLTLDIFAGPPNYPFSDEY
The assay is described as follows: Inhibition of His-tagged human AKR1C1 expressed in Escherichia coli BL21 (DE3) assessed as inhibition of reduction of non-fluorescent ketone probe to fluorescent alcohol after 1 hr by competitive fluorescence assay.

The target in assay [3] is T3, Aldo-keto reductase family 1 member C2 (Homo sapiens, UniProt P52895).
T3 sequence (P52895 whole entry): T2 sequence (Q04828 whole entry) with T38V, R47H, L54V, C87S, V151M, R170H, Q172L
The assay is described as follows: Inhibition of His-tagged human AKR1C2 expressed in Escherichia coli BL21 (DE3) assessed as inhibition of reduction of non-fluorescent ketone probe to fluorescent alcohol after 1 hr by competitive fluorescence assay.

For assay [4], the target named is T4, Aldo-keto reductase family 1 member C4 (Homo sapiens, UniProt P17516).
T4 sequence (P17516 whole entry): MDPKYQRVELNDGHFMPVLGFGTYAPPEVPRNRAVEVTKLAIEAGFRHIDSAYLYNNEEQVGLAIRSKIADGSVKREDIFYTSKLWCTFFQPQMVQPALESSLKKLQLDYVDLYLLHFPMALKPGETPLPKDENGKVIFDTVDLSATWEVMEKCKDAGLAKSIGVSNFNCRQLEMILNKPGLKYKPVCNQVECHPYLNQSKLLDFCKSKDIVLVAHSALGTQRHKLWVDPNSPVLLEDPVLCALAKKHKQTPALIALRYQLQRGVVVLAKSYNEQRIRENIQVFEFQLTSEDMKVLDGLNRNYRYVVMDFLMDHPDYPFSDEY
Nature of the assay: Inhibition of His-tagged human AKR1C4 expressed in Escherichia coli BL21 (DE3) assessed as inhibition of reduction of non-fluorescent ketone probe to fluorescent alcohol after 1 hr by competitive fluorescence assay.

Assay [5] concerns the target T5, Prostaglandin G/H synthase 1 (Homo sapiens, UniProt P23219). Nature of the assay: Inhibition of COX1 (unknown origin).
Assay [6] addresses T1, Aldo-keto reductase family 1 member C3. The assay is described as follows: Inhibition of recombinant AKR1C3 (unknown origin) overexpressed in human HCT116 cells assessed as inhibition of aerobic reduction of dinitrobenzamide PR-104A to its hydroxylamine metabolite by LC-MS/MS assay. The class given is cell-based, HCT-116.
The target in assay [7] is T5, Prostaglandin G/H synthase 1. The assay is described as follows: Inhibition of COX1 (unknown origin) at 10 uM.
For assay [8], the target named is T6, Prostaglandin G/H synthase 2 (Homo sapiens) (UniProt P35354).
T6 sequence (whole entry): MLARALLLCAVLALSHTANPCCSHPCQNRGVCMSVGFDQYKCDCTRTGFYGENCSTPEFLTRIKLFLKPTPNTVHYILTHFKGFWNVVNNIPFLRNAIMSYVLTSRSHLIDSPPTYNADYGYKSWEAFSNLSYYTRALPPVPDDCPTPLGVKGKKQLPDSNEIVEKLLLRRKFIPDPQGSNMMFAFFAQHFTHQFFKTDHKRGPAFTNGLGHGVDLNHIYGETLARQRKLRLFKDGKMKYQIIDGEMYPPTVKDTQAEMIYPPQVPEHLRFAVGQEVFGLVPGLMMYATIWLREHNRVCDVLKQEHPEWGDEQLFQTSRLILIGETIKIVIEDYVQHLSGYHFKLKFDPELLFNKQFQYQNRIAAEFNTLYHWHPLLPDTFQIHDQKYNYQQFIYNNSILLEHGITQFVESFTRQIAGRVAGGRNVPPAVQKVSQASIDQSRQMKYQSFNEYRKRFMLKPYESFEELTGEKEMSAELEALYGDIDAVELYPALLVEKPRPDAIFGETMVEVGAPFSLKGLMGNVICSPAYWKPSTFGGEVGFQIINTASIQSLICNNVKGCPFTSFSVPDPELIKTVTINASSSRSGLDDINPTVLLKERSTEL
The assay is described as follows: Inhibition of COX2 (unknown origin) at 10 uM.

The target of assay [9] is T2, Aldo-keto reductase family 1 member C1. Nature of the assay: Inhibition of AKR1C1 (unknown origin).
The target in assay [10] is T4, Aldo-keto reductase family 1 member C4. The assay is described as follows: Inhibition of AKR1C4 (unknown origin).
For assay [11], the target named is T7, Prostaglandin G/H synthase 2 (Homo sapiens, UniProt P35354).
T7 sequence (P35354 whole entry): T6 sequence (whole entry)
The assay is described as follows: Inhibition of COX2 (unknown origin).

Changes are numbered by the printed parent chain. The source made the active and inactive calls. The calls are words filed in the database; no cut-off is given here. A value given as a limit tells only on which side of the number the result lay.

The record followed here is ChEMBL document CHEMBL2331317, “Synthesis and structure-activity relationships for 1-(4-(piperidin-1-ylsulfonyl)phenyl)pyrrolidin-2-ones as novel non-carboxylate inhibitors of the aldo-keto reductase enzyme AKR1C3” (Eur J Med Chem, 2013).

T5 sequence (P23219 whole entry): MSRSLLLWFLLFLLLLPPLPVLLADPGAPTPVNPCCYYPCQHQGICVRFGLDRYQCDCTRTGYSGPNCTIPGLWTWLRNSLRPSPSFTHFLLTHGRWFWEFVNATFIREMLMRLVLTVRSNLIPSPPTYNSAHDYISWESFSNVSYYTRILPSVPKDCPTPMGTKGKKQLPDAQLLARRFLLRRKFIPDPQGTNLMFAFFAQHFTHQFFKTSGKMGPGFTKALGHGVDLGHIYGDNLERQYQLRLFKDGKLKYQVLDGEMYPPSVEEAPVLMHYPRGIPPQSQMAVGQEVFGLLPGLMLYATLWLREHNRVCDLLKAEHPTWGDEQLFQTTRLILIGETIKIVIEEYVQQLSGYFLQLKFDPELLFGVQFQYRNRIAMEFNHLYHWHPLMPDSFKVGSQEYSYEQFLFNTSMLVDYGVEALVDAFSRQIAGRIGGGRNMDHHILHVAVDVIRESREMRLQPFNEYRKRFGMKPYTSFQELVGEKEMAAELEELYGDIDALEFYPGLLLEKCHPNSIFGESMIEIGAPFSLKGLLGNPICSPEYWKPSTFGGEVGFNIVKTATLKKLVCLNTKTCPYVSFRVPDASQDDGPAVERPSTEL

As to `CC1CCCCN1S(=O)(=O)c1ccc(N2CCCC2=O)cn1` (stereo unspecified), the IC50 was 2.77 µM in assay [1], over 30 µM in assay [2], over 30 µM in assay [3] and over 30 µM in assay [4].
As to `O=C(O)c1ccccc1Nc1cccc(C(F)(F)F)c1` [FLUFENAMIC ACID], the IC50 in assay [5] worked out at 3 µM.
For `C[C@@H]1CN(S(=O)(=O)c2ccc(N3CCCC3=O)cc2)C[C@H](C)N1`, the IC50 in assay [1] was 21.2 µM.
With `C[C@@H]1CCCCN1S(=O)(=O)c1ccc(N2CCCC2=O)cc1`, the half-inhibitory concentration (IC50) in assay [2], in assay [3] and in [4] was over 30 µM in each case.
`CC1CCCCN1S(=O)(=O)c1ccccc1N1CCCC1=O` (stereo unspecified): in [1], the 50% inhibitory concentration (IC50) was over 30 µM.
Regarding `Cc1cc(S(=O)(=O)N2CCCCC2C)ccc1N1CCCC1=O` (stereo unspecified), in [1], the IC50 worked out at 10.2 µM.
As to `CC1CCCCN1S(=O)(=O)c1ccc(N2CCC2=O)cc1` (stereo unspecified), the IC50 was 5.61 µM in [1], over 30 µM in [2], over 30 µM in assay [3] and over 30 µM in assay [4].
As for `CC1CCCCN1S(=O)(=O)c1ccc(N2CCCCC2=O)cc1` (stereo unspecified), the 50% inhibitory concentration (IC50) in assay [1] was 3.77 µM; in assay [2], over 30 µM; in [3], over 30 µM; in [4] it was over 30 µM.
As for `CC1CCN(S(=O)(=O)c2ccc(N3CCCC3=O)cc2)CC1`, the IC50 was 0.2 µM in [1], over 30 µM in assay [2], over 30 µM in assay [3] and over 30 µM in assay [4].
As to `O=C1CCCN1c1ccc(S(=O)(=O)N2CCOCC2)cc1`, the IC50 in assay [1] was over 30 µM.
Consider `O=C1CCCN1c1ccc(S(=O)(=O)N2CCC[C@@H](O)C2)cc1`, for which the IC50 is 1.55 µM in assay [1], over 30 µM in assay [2], over 30 µM in assay [3] and over 30 µM in [4].
Turning to `CC1CCCN(S(=O)(=O)c2ccc(N3CCCC3=O)cc2)C1` (stereo unspecified), the IC50 in assay [1] was 0.084 µM; in [2], over 30 µM; in assay [6], 0.015 µM; in assay [3] it was over 30 µM; in assay [4], over 30 µM.
Regarding `CC1CCCCN1S(=O)(=O)c1cccc(N2CCCC2=O)c1` (stereo unspecified), the 50% inhibitory concentration (IC50) in assay [1] is over 30 µM.
Turning to `CC1CCCCN1S(=O)(=O)c1ccc(N2C(=O)CCC2=O)cc1` (stereo unspecified), the IC50 in assay [1] was over 30 µM.
For the compound `O=C1CCCN1c1ccc(S(=O)(=O)N2CCC[C@H](O)C2)cc1`, the half-maximal inhibitory concentration (IC50) is 8.98 µM in assay [1], over 30 µM in assay [2], over 30 µM in assay [3] and over 30 µM in assay [4].
Consider `CC1CCCCN1S(=O)(=O)c1ccc(NC(=O)C(C)(C)C)cc1` (stereo unspecified), for which the IC50 in assay [1] is 5.94 µM; in assay [2] it was over 30 µM; in assay [3], over 30 µM; in assay [4], over 30 µM.
On to `CC1CCCCN1S(=O)(=O)c1ccc(N2CCCC2=O)cc1` (racemic), for which the inhibition result in assay [7] and in assay [8] was “inactive” each time. The IC50 in assay [2], in assay [3] and in assay [4] was over 30 µM throughout.
Turning to `CC1CCCCN1C(=O)c1ccc(N2CCCC2=O)cc1` (stereo unspecified), in [1], the half-inhibitory concentration (IC50) was over 30 µM.
Regarding `Cc1cc(S(=O)(=O)N2CCCCC2C)c(C)cc1N1CCCC1=O` (stereo unspecified), the 50% inhibitory concentration (IC50) in assay [1] is over 30 µM.
For the compound `C[C@H]1CCC[C@H](C)N1S(=O)(=O)c1ccc(N2CCCC2=O)cc1`, the IC50 in [1] was 0.056 µM; in assay [2], over 30 µM; in assay [6] it was 0.022 µM; in assay [3], over 30 µM; in assay [4] it was over 30 µM.
Take `CC1CCCCN1Cc1ccc(N2CCCC2=O)cc1` (stereo unspecified): the concentration for half-maximal inhibition (IC50) in assay [1] was over 30 µM.
`O=C1CCCN1c1ccc(S(=O)(=O)N2CCc3ccccc3C2)cc1`: the half-maximal inhibitory concentration (IC50) in assay [1] was 0.052 µM.
Still for that read-out and setting: then `O=C1CCCN1c1ccc(S(=O)(=O)N2CCCC2)cc1`, with over 30 µM.
On to `Cc1cccc(Nc2ccccc2C(=O)O)c1C` [MEFENAMIC ACID], for which the IC50 in assay [5] is 25 µM; in assay [9], 3.91 µM; in assay [10] it was over 100 µM; in assay [11], 2.9 µM.
In the case of `CC(C)C(=O)Nc1ccc(S(=O)(=O)N2CCCCC2C)cc1` (stereo unspecified), in assay [1], the half-inhibitory concentration (IC50) turned out to be 12.5 µM.
The same measure, in the same setting: then `CC1CCCCN1S(=O)(=O)c1ccc(N2C(=O)c3ccccc3C2=O)cc1` (stereo unspecified), with over 30 µM.
As for `O=C1CCCN1c1ccc(S(=O)(=O)N2CCCCC2)cc1`, the concentration for half-maximal inhibition (IC50) is 0.14 µM in [1], over 30 µM in [2], over 30 µM in assay [3] and over 30 µM in [4]. Also, the inhibition result in assay [7] and in assay [8] was “inactive” each time.
With `CC1CCCCN1S(=O)(=O)c1ccc(N2CCCS2(=O)=O)cc1` (stereo unspecified), the half-inhibitory concentration (IC50) in assay [1] was 5.22 µM; in assay [2] it was over 30 µM; in assay [3] it was over 30 µM; in assay [4], over 30 µM.
Consider `Cc1ccc(Cl)c(Nc2ccccc2C(=O)O)c1Cl` [MECLOFENAMIC ACID], for which the IC50 in assay [5] was found to be 0.22 µM; in assay [11] it was 0.7 µM.

A word on the IC50: it is the concentration needed to halve the response being measured.
